Laboratory results taken from patent US9945862B2, “Biomarkers for predicting and assessing responsiveness of thyroid and kidney cancer subjects to lenvatinib compounds” (Eisai R&D Management Co., Ltd., priority 2011, dated 2018).

Tested on: cytokine, chemokine and angiogenic factors (blood biomarkers)
Assay: Serum blood biomarkers (cytokine, chemokine and angiogenic factors) by ELISA and multiplex kits, pre- and post-treatment with E7080
Type: in vivo, human
Procedure: Patients received E7080 at a dose of 24 mg oral once daily in 28 day cycles. […] 7.5 mL of blood was drawn into serum […] tube (SST) and let to clot at room temperature for at least 30 min. Within 60 minutes of sample collection, the tubes were centrifuged for 10 minutes at 20-25° C. at 1400×g. The supernatant was drawn without disturbing the pellet and the serum was mixed and divided into two sample tubes and stored frozen (−70° C.) at an upright position until further treatment for analysis. Serum samples from 58 patients were used for blood biomarker analysis. […] The association of progression free survival with or without a covariate was analyzed. The covariates used are the following PK parameters: cycle 1 day 1 Cmax (E7080 concentration 2 hr after dosing on cycle 1 day 1: MAX1); cycle 1 day 1 Ctrough (E7080 concentration before dosing on cycle1 day 8: MIN1); cycle 2 day 1 Cmax (E7080 concentration 2 hrs after dosing on cycle 2 day 1: MAX2); cycle 2 day 1 Ctrough (E7080 concentration before dosing on cycle 2 day 1: MIN2). Serum samples were tested in batch format where all timepoints from the same subject were assayed on the same day. On the day of assay, samples were removed from −80° C. and allowed to thaw and reach room temperature. The serum samples were tested using the following commercial assay kits as per the manufacturer's instructions: Human Soluble Tie-2 ELISA (R&D Systems Cat. No. DTE200), Human Angiopoietin-1 ELISA (R&D Systems Cat. No. DANG10), Human FGF23 ELISA, Human SDF-1a ELISA. Human Angiopoietin-2 ELISA (R&D Systems Cat. No. DANG20), Human Soluble Receptor Multiplex (Millipore Cat. No. HSCR-32K; sVEGF R1, sVEGF R2 and sVEGF R3 only), Human Cytokine/Chemokine Panel I Multiplex (Millipore Cat. No. MPXHCYTO-60K; IL-1α, IL-1β, IL-1ra, IL-2, IL-4, IL-5, IL-6, IL-7, IL-8, IL-10, IL-12p40, IL-12p70, IL-13, IL-15, IL-17, sCD40L, EGF, Eotaxin, FGF-2, G-CSF, GM-CSF, IFN-γ, IP-10, MCP-1, MIP-1α, MIP-1β, PDGF-AA, RANTES, TGF-α, TNF-α and VEGF only) and Human Growth Factor Multiplex (Origene TruPLEX Cat. No. AM100096; PDGF-AB, PDGF-BB, FGF4, VEGFD, FGF2, EGF, HGF, FLT3LG, ANGPT2, PGF and VEGFA).
The ELISA plates were measured using a Molecular Devices UVmax kinetic microplate reader with SoftMax Pro 5.2 software. The multiplex assays were performed using the Bio-Rad Bio-Plex system with Bio-Plex Manager 4.1 software. Final protein concentrations (pg/mL) were calculated from the standard curve for each assay. Depending on the assay, serum samples may have been diluted in assay buffer prior to testing. In these cases, protein concentrations were multiplied by the dilution factor.
From 58 patient samples, between 27 and 49 pre- and post-treatment blood samples were used for analyses.

COc1cc2nccc(Oc3ccc(NC(=O)NC4CC4)c(Cl)c3)c2cc1C(N)=O [E7080, 4-(3-chloro-4-(cyclopropylaminocarbonyl)aminophenoxy)-7-methoxy-6-quinolinecarboxamide]
sVEGFR2 fold change (median) (CYCLE 1 DAY 8 vs CYCLE 1 DAY 1): 0.676 | FGF2 (79) ratio (Median), PR group (CYCLE 2 DAY 2/CYCLE 1 DAY 8): 1.132 | FGF2 (79) ratio (Median), others (SD or PD) (CYCLE 2 DAY 2/CYCLE 1 DAY 8): 0.978 | GM-CSF ratio (Median), PR group (CYCLE 2 DAY 2/CYCLE 1 DAY 8): 1.051 | GM-CSF ratio (Median), others (SD or PD) (CYCLE 2 DAY 2/CYCLE 1 DAY 8): 0.876 | HGF (86) ratio (Median), PR group (CYCLE 2 DAY 2/CYCLE 1 DAY 8): 0.789 | HGF (86) ratio (Median), others (SD or PD) (CYCLE 2 DAY 2/CYCLE 1 DAY 8): 1.087 | Tie-2 ratio (Median), PR group (CYCLE 2 DAY 2/CYCLE 1 DAY 8): 0.791 | Tie-2 ratio (Median), others (SD or PD) (CYCLE 2 DAY 2/CYCLE 1 DAY 8): 0.852 | VEGFA (100) ratio (Median), PR group (CYCLE 2 DAY 2/CYCLE 1 DAY 8): 0.899 | VEGFA (100) ratio (Median), others (SD or PD) (CYCLE 2 DAY 2/CYCLE 1 DAY 8): 1.172 | ANG2 (90) serum level post treatment (median) (CYCLE 2 DAY 8): 600.6 pg/mL | Ang-2 serum level post treatment (median) (CYCLE 2 DAY 8): 1533 pg/mL | EGF (80) serum level post treatment (median) (CYCLE 2 DAY 8): 875.8 pg/mL | EGF serum level post treatment (median) (CYCLE 2 DAY 8): 75.9 pg/mL | Eotaxin serum level post treatment (median) (CYCLE 2 DAY 8): 177 pg/mL | G-CSF serum level post treatment (median) (CYCLE 2 DAY 8): 61.3 pg/mL | IL-6 concentration (Median), PR group (CYCLE 2 DAY 8): 8.2 pg/mL | IL-6 concentration (Median), others (SD or PD) (CYCLE 2 DAY 8): 33.9 pg/mL | IL-6 serum level post treatment (median) (CYCLE 2 DAY 8): 15 pg/mL | IL-8 serum level post treatment (median) (CYCLE 2 DAY 8): 31.4 pg/mL | IP-10 serum level post treatment (median) (CYCLE 2 DAY 8): 602.8 pg/mL | MCP-1 serum level post treatment (median) (CYCLE 2 DAY 8): 618.0 pg/mL | PGF (91) serum level post treatment (median) (CYCLE 2 DAY 8): 46.0 pg/mL | SDF-1a serum level post treatment (median) (CYCLE 2 DAY 8): 3529.5 pg/mL | Tie-2 serum level post treatment (median) (CYCLE 2 DAY 8): 26220 pg/mL | VEGFA (100) serum level post treatment (median) (CYCLE 2 DAY 8): 212.5 pg/mL | sVEGFR1 serum level post treatment (median) (CYCLE 2 DAY 8): 341.5 pg/mL | sVEGFR2 serum level post treatment (median) (CYCLE 2 DAY 8): 13352.1 pg/mL | sVEGFR3 serum level post treatment (median) (CYCLE 2 DAY 8): 4030.9 pg/mL | Eotaxin ratio (Median), PR group (CYCLE 2 DAY 8/CYCLE 1 DAY 1): 1.541 | Eotaxin ratio (Median), others (SD or PD) (CYCLE 2 DAY 8/CYCLE 1 DAY 1): 1.242 | IP-10 ratio (Median), PR group (CYCLE 2 DAY 8/CYCLE 1 DAY 1): 1.547 | IP-10 ratio (Median), others (SD or PD) (CYCLE 2 DAY 8/CYCLE 1 DAY 1): 1.151 | ANG2 (90) fold change (median) (CYCLE 2 DAY 8 vs CYCLE 1 DAY 1): 0.586 | Ang-2 fold change (median) (CYCLE 2 DAY 8 vs CYCLE 1 DAY 1): 0.618 | EGF (80) fold change (median) (CYCLE 2 DAY 8 vs CYCLE 1 DAY 1): 1.17 | EGF fold change (median) (CYCLE 2 DAY 8 vs CYCLE 1 DAY 1): 0.808 | Eotaxin fold change (median) (CYCLE 2 DAY 8 vs CYCLE 1 DAY 1): 1.363 | G-CSF fold change (median) (CYCLE 2 DAY 8 vs CYCLE 1 DAY 1): 1.215 | IL-6 fold change (median) (CYCLE 2 DAY 8 vs CYCLE 1 DAY 1): 1.299 | IL-8 fold change (median) (CYCLE 2 DAY 8 vs CYCLE 1 DAY 1): 1.205 | IP-10 fold change (median) (CYCLE 2 DAY 8 vs CYCLE 1 DAY 1): 1.382 | MCP-1 fold change (median) (CYCLE 2 DAY 8 vs CYCLE 1 DAY 1): 1.086 | PGF (91) fold change (median) (CYCLE 2 DAY 8 vs CYCLE 1 DAY 1): 3.05 | SDF-1a fold change (median) (CYCLE 2 DAY 8 vs CYCLE 1 DAY 1): 1.345 | Tie-2 fold change (median) (CYCLE 2 DAY 8 vs CYCLE 1 DAY 1): 0.766 | VEGFA (100) fold change (median) (CYCLE 2 DAY 8 vs CYCLE 1 DAY 1): 1.426 | sVEGFR1 fold change (median) (CYCLE 2 DAY 8 vs CYCLE 1 DAY 1): 0.805 | sVEGFR2 fold change (median) (CYCLE 2 DAY 8 vs CYCLE 1 DAY 1): 0.499 | sVEGFR3 fold change (median) (CYCLE 2 DAY 8 vs CYCLE 1 DAY 1): 0.843
